US20120003270A1, “6-SUBSTITUTED ISOFLAVONOID COMPOUNDS AND USES THEREOF” (priority 2008, published 2012)

Columns and labels:
HCAECs = test: HCAEC cell viability; type: cell-based, human; conditions: 10 μM, 24 hr incubation
[1] = Free radical scavenging (DPPH); type: biochemical; conditions: DPPH 0.1 mM, 20 minutes, 517 nm; read-out: Free radical scavenging ability EC50
Description: The antioxidant (free radical trapping) activity of test compounds was assessed using the stable free radical compound 2,2-diphenyl-1-picrylhydrazyl (DPPH). A stock solution of DPPH was prepared at a concentration of 0.1 mM in ethanol and mixed for 10 minutes prior to use. Compound (1) was reacted with DPPH for 20 minutes, after which time the absorbance at 517 nm was determined. The change in absorbance at 517 nm was compared to a reagent blank (DPPH with ethanol alone). The IC50 value was estimated as the concentration of the test compound that caused a 0.6 change in absorbance (with 1.2 absorbance units representing total scavenging of the DPPH radical).

[2] = test system: low density lipoprotein (LDL); test: Cu2+-induced oxidation of LDL (FOX assay); type: biochemical; set-up: lipid peroxide formation: unit not given here
Description: Blood was collected by venipuncture and plasma separated by centrifugation. LDL was then isolated from plasma using a 4-step sodium chloride density gradient and ultracentrifuged at 200,000 g for 20 hours at 4° C. The collect LDL was purified by passage through gel filtration PD10 column to remove excess salt and EDTA, and stored in the dark at 4° C. to prevent auto-oxidation and used with two weeks of isolation. The LDL cholesterol content was measure using a standard enzymatic method and protein concentration determined by the Lowry method using BSA as the standard.
On the day of each experiment a 2 mL aliquot of LDL was passed through a second PD10 column and diluted with chelex treated PBS (100 mM) to give a standard protein concentration of 0.1 mg/mL, ie final concentration per reaction. Oxidation reactions were initiated by the addition of freshly prepared Cu^2+ solution, such that the final concentration of CuSO4 was 5 μM. […] The extent of lipoprotein oxidation was determined by measuring the formation of lipid-peroxides on aliquots removed every 30-minute over a 3-hour period. Peroxides were determined at each time point by the ferrous oxidation-xylenol orange (FOX) assay using standard hydrogen peroxide curve (5 to 200 μM). Compound (1) was examined in at least two separate experiments performed on separate days.

red blood cells (RBC) = test: Peroxyl radical (AAPH)-induced red blood cell lysis; type: cell-based; conditions: test compounds at 1 μM; AAPH 150 mM; vehicle 40.0
Description: Freshly collected heparinised venous blood (10 ml, on ice) was aliquotted into 1.8 ml sterile eppendorf tubes and centrifuged for 10 minutes at 2600 rpm at 4° C. Plasma and buffy coat layers were removed (approximately 900 μl) and packed red blood cells (RBC) were then washed by the addition of 900 μl of sterile, ice cold PBS. This washing procedure was repeated twice. Packed RBC were resuspended by the addition of 900 μl of ice-cold, sterile PBS (and termed RBC stock). RBC stocks were stored at 4° C. for a maximum of three days. All working suspensions of RBC were prepared fresh daily by diluting 200 μl of RBC stock into 10 ml of ice-cold, sterile PBS and 50 μl added to each well.
Stocks of AAPH were freshly prepared for individual experiments as follows. […] Turbidity of RBC suspensions were monitored using a Tecan microplate reader at 690 nm (37° C.) with gentle vortexing. Assays were performed in quadruplicate and readings were taken every 5 minutes over 5 hours. RBC lysis curves were constructed by plotting absorbance (mean of 4 readings) against time. Time to half-lysis was calculated by taking the highest absorbance reading (no lysis) and the lowest absorbance reading (maximum lysis). The sum of these two readings divided by two gave the absorbance at half-lysis. Simple regression analysis was used to calculate the time at which half-lysis absorbance occurred.

[3] = test system: splenocytes (T and B cells); test: Mitogen-stimulated splenocyte proliferation (MTT); type: cell-based, mouse; conditions: 10 μM, 3 day incubation, ConA or LPS
Description: (§1) Male Skh-1:HR1 (hairless) mice, approximately six weeks old were killed by cervical dislocation. Single cell suspensions were made from the spleen and erythrocytes were lysed in buffer (0.14M NH4Cl, 17 mM Tris, pH 7.2). The remaining splenocytes were cultured in RPMI-1640 (Gibco) supplemented with 10% (v:v) FBS, 200 mM L-glutamine, penicillin/streptomycin and […] 2-mercaptoethanol. Splenocytes were added to quadruplicate wells containing either concanavalin A (ConA, Sigma-Aldrich—0.4 μg/well), LPS (Sigma-Aldrich—1 μg/well) or no mitogen, as well 10 μM of test compound in DMSO. Samples were analysed after a 3 day incubation at 37° C. in 5% CO2 in air. Methylthiazoletetrazolium (MTT) is bioreduced by viable cells into a coloured formazan product that is soluble in DMSO. Thus the quantity of formazan product is directly proportional to the number of living cells in culture, and can be measured using a spectrophotometer at 570 nm. MTT was added to each well, incubated for a further 4 hrs and then colour developed with 0.04N HCl in isopropanol. Culture supernatants were stored after collection at −80° C. and both T and B cells analysed by ELISA (BD Biosciences) for IFN-γ (a Th-1 cytokine) and for T cells alone, IL-6 (a Th-2 cytokine).

IFN-γ and IL-6 = test: Splenocyte cytokine production (ELISA); type: cell-based, mouse; conditions: 10 μM, 3 day incubation, culture supernatant
Description: as §1

CN(C)Cc1cc2c(cc1O)OCC(c1ccc(O)cc1)=C2 [Compound (1)]
Cell viability (HCAECs): cell viability was unaffected | EC50 [1]: 18.8 µM | lipid peroxide formation ([2]; Compound (1) 100 μM + Cu++ 5 μM, no LDL, 0 min): 10.13 ± 2.82 | lipid peroxide formation ([2]; Compound (1) 100 μM + Cu++ 5 μM, no LDL, 30 min): 32.09 ± 11.15 | lipid peroxide formation ([2]; Compound (1) 100 μM + Cu++ 5 μM, no LDL, 60 min): 46.21 ± 20.68 | lipid peroxide formation ([2]; Compound (1) 100 μM + Cu++ 5 μM, no LDL, 90 min): 58.19 ± 28.98 | lipid peroxide formation ([2]; Compound (1) 100 μM + Cu++ 5 μM, no LDL, 120 min): 69.46 ± 35.33 | lipid peroxide formation ([2]; Compound (1) 100 μM + Cu++ 5 μM, no LDL, 180 min): 76.60 ± 40.17 | IC50 ([2]; LDL 0.1 mg/mL, CuSO4 5 μM, read-out: IC50, concentration at which 50% of the LDL oxidation was inhibited): 0.58 µM | lipid peroxide formation ([2]; LDL 0.1 mg/ml + compound (1) 0.1 μM + Cu++ 5 μM, 0 min): 11.54 ± 1.96 | lipid peroxide formation ([2]; LDL 0.1 mg/ml + compound (1) 0.1 μM + Cu++ 5 μM, 30 min): 14.50 ± 0.28 | lipid peroxide formation ([2]; LDL 0.1 mg/ml + compound (1) 0.1 μM + Cu++ 5 μM, 60 min): 26.86 ± 0.65 | lipid peroxide formation ([2]; LDL 0.1 mg/ml + compound (1) 0.1 μM + Cu++ 5 μM, 90 min): 89.43 ± 17.03 | lipid peroxide formation ([2]; LDL 0.1 mg/ml + compound (1) 0.1 μM + Cu++ 5 μM, 120 min): 161.78 ± 1.44 | lipid peroxide formation ([2]; LDL 0.1 mg/ml + compound (1) 0.1 μM + Cu++ 5 μM, 180 min): 193.20 ± 25.05 | lipid peroxide formation ([2]; LDL 0.1 mg/ml + compound (1) 1.0 μM + Cu++ 5 μM, 0 min): 11.31 ± 1.95 | lipid peroxide formation ([2]; LDL 0.1 mg/ml + compound (1) 1.0 μM + Cu++ 5 μM, 30 min): 12.83 ± 2.28 | lipid peroxide formation ([2]; LDL 0.1 mg/ml + compound (1) 1.0 μM + Cu++ 5 μM, 60 min): 13.11 ± 2.70 | lipid peroxide formation ([2]; LDL 0.1 mg/ml + compound (1) 1.0 μM + Cu++ 5 μM, 90 min): 14.78 ± 1.06 | lipid peroxide formation ([2]; LDL 0.1 mg/ml + compound (1) 1.0 μM + Cu++ 5 μM, 120 min): 20.39 ± 2.95 | lipid peroxide formation ([2]; LDL 0.1 mg/ml + compound (1) 1.0 μM + Cu++ 5 μM, 180 min): 102.30 ± 37.30 | lipid peroxide formation ([2]; LDL 0.1 mg/ml + compound (1) 10 μM + Cu++ 5 μM, 0 min): 11.54 ± 1.96 | lipid peroxide formation ([2]; LDL 0.1 mg/ml + compound (1) 10 μM + Cu++ 5 μM, 30 min): 16.77 ± 2.55 | lipid peroxide formation ([2]; LDL 0.1 mg/ml + compound (1) 10 μM + Cu++ 5 μM, 60 min): 19.56 ± 4.55 | lipid peroxide formation ([2]; LDL 0.1 mg/ml + compound (1) 10 μM + Cu++ 5 μM, 90 min): 20.84 ± 5.30 | lipid peroxide formation ([2]; LDL 0.1 mg/ml + compound (1) 10 μM + Cu++ 5 μM, 120 min): 22.80 ± 3.39 | lipid peroxide formation ([2]; LDL 0.1 mg/ml + compound (1) 10 μM + Cu++ 5 μM, 180 min): 20.30 ± 4.97 | lipid peroxide formation ([2]; LDL 0.1 mg/ml + compound (1) 100 μM + Cu++ 5 μM, 0 min): 13.83 ± 1.77 | lipid peroxide formation ([2]; LDL 0.1 mg/ml + compound (1) 100 μM + Cu++ 5 μM, 30 min): 29.71 ± 6.85 | lipid peroxide formation ([2]; LDL 0.1 mg/ml + compound (1) 100 μM + Cu++ 5 μM, 60 min): 39.57 ± 10.67 | lipid peroxide formation ([2]; LDL 0.1 mg/ml + compound (1) 100 μM + Cu++ 5 μM, 90 min): 78.85 ± 33.54 | lipid peroxide formation ([2]; LDL 0.1 mg/ml + compound (1) 100 μM + Cu++ 5 μM, 120 min): 54.24 ± 9.58 | lipid peroxide formation ([2]; LDL 0.1 mg/ml + compound (1) 100 μM + Cu++ 5 μM, 180 min): 62.50 ± 19.58 | Time taken to reach half-lysis, time (red blood cells (RBC)): 154.6 min | Effect on splenocyte (T and B cell) numbers [3]: markedly and significantly immunosuppressive to T cells and to a lesser extent, B cells | Effect on cytokine synthesis (INF-γ, IL-6) (IFN-γ and IL-6): concomitant reduction on the synthesis of INF-γ and IL-6
